Activity calls are given as the source filed them. No cut-off for these calls is given here.
Key:
[1] = target: Ribonucleoside-diphosphate reductase RR1 (Homo sapiens) (UniProt P23921+Q7LG56+P31350); experiment: (§1) Inhibition of mammalian ribonucleotide reductase (mRR); format: protein-complex assay
[2] = target: T1, Ribonucleoside-diphosphate reductase RR1 (Homo sapiens, UniProt P23921+P31350+Q7LG56); experiment: as §1; format: protein-complex assay
T1 sequence (P23921 whole entry): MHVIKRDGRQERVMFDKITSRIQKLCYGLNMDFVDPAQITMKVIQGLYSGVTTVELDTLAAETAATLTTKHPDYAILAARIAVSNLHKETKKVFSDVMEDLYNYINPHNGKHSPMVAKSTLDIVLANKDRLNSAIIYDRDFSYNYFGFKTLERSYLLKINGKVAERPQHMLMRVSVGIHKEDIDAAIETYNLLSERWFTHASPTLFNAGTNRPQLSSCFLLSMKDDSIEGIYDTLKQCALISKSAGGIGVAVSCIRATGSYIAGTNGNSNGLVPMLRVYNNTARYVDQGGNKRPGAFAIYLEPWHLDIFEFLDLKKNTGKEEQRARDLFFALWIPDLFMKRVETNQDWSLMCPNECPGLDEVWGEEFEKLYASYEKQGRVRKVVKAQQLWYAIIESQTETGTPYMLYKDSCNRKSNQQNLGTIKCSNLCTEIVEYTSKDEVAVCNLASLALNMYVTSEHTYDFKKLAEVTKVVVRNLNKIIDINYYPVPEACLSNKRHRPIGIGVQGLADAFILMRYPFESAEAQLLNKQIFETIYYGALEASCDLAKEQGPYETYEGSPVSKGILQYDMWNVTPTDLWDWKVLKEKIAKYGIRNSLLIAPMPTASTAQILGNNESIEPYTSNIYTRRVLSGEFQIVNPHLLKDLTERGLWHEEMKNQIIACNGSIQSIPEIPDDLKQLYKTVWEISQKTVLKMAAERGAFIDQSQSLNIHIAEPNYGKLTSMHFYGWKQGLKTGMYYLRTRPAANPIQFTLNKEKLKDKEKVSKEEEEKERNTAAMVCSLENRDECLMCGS
T1 sequence (Q7LG56 whole entry): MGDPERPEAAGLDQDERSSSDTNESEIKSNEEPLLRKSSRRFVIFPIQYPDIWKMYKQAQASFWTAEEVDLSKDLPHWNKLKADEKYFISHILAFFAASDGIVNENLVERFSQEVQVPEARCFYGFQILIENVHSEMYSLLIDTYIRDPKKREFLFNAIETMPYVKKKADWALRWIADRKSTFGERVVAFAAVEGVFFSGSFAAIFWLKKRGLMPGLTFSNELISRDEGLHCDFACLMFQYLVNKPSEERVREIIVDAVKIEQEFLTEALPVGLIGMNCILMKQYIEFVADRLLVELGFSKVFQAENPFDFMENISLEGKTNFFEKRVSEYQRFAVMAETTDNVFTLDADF
T1 sequence (P31350 whole entry): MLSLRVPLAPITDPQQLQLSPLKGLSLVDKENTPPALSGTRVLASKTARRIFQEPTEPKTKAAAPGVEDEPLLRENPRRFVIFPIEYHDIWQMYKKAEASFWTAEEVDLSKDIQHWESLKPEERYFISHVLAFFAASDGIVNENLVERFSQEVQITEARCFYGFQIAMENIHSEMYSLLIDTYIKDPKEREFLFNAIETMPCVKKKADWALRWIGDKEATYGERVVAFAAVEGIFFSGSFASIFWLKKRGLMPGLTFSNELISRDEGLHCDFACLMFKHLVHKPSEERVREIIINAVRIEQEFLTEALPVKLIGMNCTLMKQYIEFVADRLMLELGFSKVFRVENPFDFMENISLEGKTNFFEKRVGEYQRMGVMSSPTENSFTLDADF

Row | Activity [1] | IC50 [2] [µM] | Structure (SMILES)
1 | inactive | – | CC(C)CO[C@@H]1CC[C@H](N(C)CC(=O)N[C@@H](CC(=O)O)C(=O)N[C@@H](Cc2ccccc2)C(=O)O)[C@@H](COC(=O)CCC2c3ccccc3-c3ccccc32)O1
2 | inactive | – | CC(C)CO[C@@H]1CC[C@H](N(C)CC(=O)N[C@@H](CC(=O)O)C(=O)N[C@@H](Cc2ccccc2)C(=O)O)[C@@H](COC(=O)CCc2ccccc2)O1
3 | – | 40 | CC(C)CO[C@@H]1C[C@@H]2[C@@H]([C@@H](COC(=O)CCC3c4ccccc4-c4ccccc43)O1)N(CC(=O)N[C@@H](CC(=O)O)C(=O)N[C@@H](Cc1ccccc1)C(=O)O)C[C@H]2O
4 | Active | – | CC(C)CO[C@@H]1C[C@@H]2[C@@H]([C@@H](COC(=O)CCc3ccccc3)O1)N(CC(=O)N[C@@H](CC(=O)O)C(=O)N[C@@H](Cc1ccccc1)C(=O)O)C[C@H]2O
5 | inactive | – | CC(C)CO[C@@H]1C[C@@H]2[C@@H]([C@@H](COC(=O)COc3ccc4ccccc4c3)O1)N(CC(=O)N[C@@H](CC(=O)O)C(=O)N[C@@H](Cc1ccccc1)C(=O)O)C[C@H]2O

— ChEMBL document CHEMBL1141205, “Design, synthesis, and evaluation of octahydropyranopyrrole-based inhibitors of mammalian ribonucleotide reductase” (Bioorg Med Chem Lett, 2005)
